From US10807985B2 (Blueprint Medicines Corporation, priority 2013, dated 2020) come the findings set out here.

For one assay, the target named is D816V KIT (Homo sapiens (Human), UniProt P10721, D816V). The assay is described as follows: KIT D816V assay at Km (Caliper electrophoretic mobility shift). The settings on record: biochemical, 15 uM ATP (Km), 90 minutes at 25 C; read-out: INH KIT D816V.
Assay [1] deals with KIT D816V kinase activity (KIT autophosphorylation at tyrosine 719) in HMC1.2 cells (Homo sapiens (Human), UniProt P10721, D816V/V560G). The assay is described as follows: HMC1.2 autophosphorylation assay (phospho-Y719 c-KIT AlphaLISA). The settings on record: HMC1.2 mast cell leukemia cell line (KIT V560G, D816V), 90 minutes compound; read-out: INH-KIT-PHOS-HMC1.2. In kind it is cell-based.
Chain of KIT D816V kinase activity (KIT autophosphorylation at tyrosine 719) in HMC1.2 cells (P10721 26-976 V560G/D816V): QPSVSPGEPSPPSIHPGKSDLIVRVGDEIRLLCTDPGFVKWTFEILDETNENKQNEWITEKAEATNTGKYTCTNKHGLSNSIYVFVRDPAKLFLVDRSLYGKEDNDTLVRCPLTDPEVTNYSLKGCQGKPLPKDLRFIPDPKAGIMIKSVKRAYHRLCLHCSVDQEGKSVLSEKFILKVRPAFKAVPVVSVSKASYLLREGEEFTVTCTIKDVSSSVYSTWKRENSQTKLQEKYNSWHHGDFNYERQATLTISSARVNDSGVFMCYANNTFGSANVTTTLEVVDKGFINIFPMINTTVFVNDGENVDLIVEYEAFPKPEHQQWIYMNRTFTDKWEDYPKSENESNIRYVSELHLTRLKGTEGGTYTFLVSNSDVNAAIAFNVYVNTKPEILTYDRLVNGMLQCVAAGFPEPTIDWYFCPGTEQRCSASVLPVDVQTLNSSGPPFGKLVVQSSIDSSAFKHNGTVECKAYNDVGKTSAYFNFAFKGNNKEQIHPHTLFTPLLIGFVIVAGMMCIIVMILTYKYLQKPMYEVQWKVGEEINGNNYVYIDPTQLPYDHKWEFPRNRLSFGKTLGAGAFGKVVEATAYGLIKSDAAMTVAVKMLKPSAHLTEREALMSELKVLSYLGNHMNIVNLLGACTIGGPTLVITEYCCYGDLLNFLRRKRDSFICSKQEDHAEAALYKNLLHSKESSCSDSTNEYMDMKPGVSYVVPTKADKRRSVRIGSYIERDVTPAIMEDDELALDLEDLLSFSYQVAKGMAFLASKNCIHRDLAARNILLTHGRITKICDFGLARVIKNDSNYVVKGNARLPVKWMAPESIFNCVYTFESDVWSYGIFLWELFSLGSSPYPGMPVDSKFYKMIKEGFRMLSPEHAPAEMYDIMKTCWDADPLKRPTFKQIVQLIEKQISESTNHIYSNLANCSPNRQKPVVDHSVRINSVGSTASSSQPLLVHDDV

Chain of D816V KIT (P10721 26-976 D816V): as the sequence (P10721 26-976 V560G/D816V) above, with G535V counted along it

Regarding `Cc1cc(F)ccc1[C@](C)(O)c1cnc(N2CCN(c3ncnn4cc(-c5cnn(C)c5)cc34)CC2)nc1` [Compound 80], at D816V KIT, the IC50 lay in the range of 0.01 to 0.1 µM.

Turning to `Cn1cc(-c2cc3c(N4CCN(c5ncc([C@@H](O)c6ccc(F)cc6)cn5)CC4)ncnn3c2)cn1` [Compound 31], the results for the IC50 (at D816V KIT; in assay [1]) were 0.00101 to 0.01 µM and < 0.05 µM, respectively.

As for `COc1cc(OC)cc(-c2cc3c(N4CCN(c5ccccc5)CC4)ncnn3c2)c1` [Compound 4], the IC50 was > 0.1 µM on D816V KIT and > 10 µM in assay [1].

Regarding `COc1ccc(-c2cc3c(N4CCN(c5ccccc5)CC4)ncnn3c2)cc1` [Compound 2], the IC50 on D816V KIT is > 0.1 µM; in assay [1], > 10 µM.

Consider `Cc1ccc(-c2cc3c(N4CCN(c5ncc([C@](C)(O)c6ccc(F)cc6)cn5)CC4)ncnn3c2)s1` [Compound 81], for which the results for the IC50 (on D816V KIT; in assay [1]) were 0.01 to 0.1 µM and 1 to 10 µM, respectively.

Turning to `Cn1cc(-c2cc3c(N4CCN(c5ncc([C@@H](N)c6ccc(F)cc6)cn5)CC4)ncnn3c2)cn1` [Compound 27], the IC50 at D816V KIT is 0.00101 to 0.01 µM; in assay [1], < 0.05 µM.

As to `NC(=O)c1ccc(-c2cc3c(N4CCN(c5ncc(Cc6ccccc6)cn5)CC4)ncnn3c2)cc1` [Compound 33], the IC50 fell in the range of 0.00101 to 0.01 µM on D816V KIT and 0.1 to 1 µM in assay [1].

As for `c1ccc(Cc2cnc(N3CCN(c4ncnn5cc(-c6cnn(C[C@@H]7CNCCO7)c6)cc45)CC3)nc2)cc1` [Compound 120], the IC50 at D816V KIT was < 0.001 µM; in assay [1], 0.05 to 0.1 µM.

`C[C@@H](c1ccc(F)cc1)c1cnc(N2CCN(c3ncnn4cc(-c5cnn(C)c5)cc34)C[C@H]2CO)nc1` [Compound 73]: the IC50 at D816V KIT was 0.00101 to 0.01 µM; in assay [1] it was < 0.05 µM.

For the molecule `CC[C@H](c1ccc(F)cc1)c1cnc(N2CCN(c3ncnn4cc(-c5cnn(C)c5)cc34)CC2)nc1` (single isomer, unassigned) [Compound 40], the results for the IC50 (at D816V KIT; in assay [1]) were 0.00101 to 0.01 µM and 0.1 to 1 µM, respectively.

With `Cn1cc(-c2cc3c(N4CCN(c5ncc([C@@](C)(O)c6c(F)cccc6F)cn5)CC4)ncnn3c2)cn1` [Compound 92], the IC50 is 0.00101 to 0.01 µM at D816V KIT and < 0.05 µM in assay [1].

As for `CCn1cc(-c2cc3c(N4CCN(c5ncc([C@@](C)(N)c6ccc(F)cc6)cn5)CC4)ncnn3c2)cn1` [Compound 63], the figures for the IC50 (on D816V KIT; in assay [1]) were < 0.001 µM and < 0.05 µM, respectively.

As for `Cn1cc(-c2cc3c(N4CCN(c5ncc([C@@](O)(c6ccc(F)cc6)C6CC6)cn5)CC4)ncnn3c2)cn1` [Compound 104], the IC50 was 0.00101 to 0.01 µM on D816V KIT and 0.1 to 1 µM in assay [1].

For the molecule `C[C@@H]1CN(c2ncnn3cc(-c4cnn(C)c4)cc23)CCN1c1ncc(Cc2ccccc2)cn1` [Compound 8], the IC50 fell in the range of 0.00101 to 0.01 µM on D816V KIT and 0.1 to 1 µM in assay [1].

As to `Cn1cc(-c2cc3c(N4CCN(c5ncc([C@@](C)(O)c6ccc(Cl)cc6)cn5)CC4)ncnn3c2)cn1` [Compound 83], the IC50 is < 0.001 µM on D816V KIT and < 0.05 µM in assay [1].

Take `C[C@@H]1CN(c2ncnn3cc(-c4cnn(C)c4)cc23)CCN1c1ncc(Sc2ccccc2F)cn1` [Compound 55]: the IC50 on D816V KIT lay within 0.01 to 0.1 µM; in assay [1] it was 0.1 to 1 µM.

For the molecule `Cn1cc(-c2cn3ncnc(N4CCN(c5ncc(C(C)(O)c6ccc(F)cc6)cn5)CC4)c3c2Cl)cn1` (stereo in doubt) [Compound 107, (S)-1-(2-(4-(5-chloro-6-(1-methyl-1H-pyrazol-4-yl)pyrrolo[1,2-f][1,2,4]triazin-4-yl)piperazin-1-yl)pyrimidin-5-yl)-1-(4-fluorophenyl)ethanol], the IC50 at D816V KIT is > 0.1 µM; in assay [1] it was 1 to 10 µM.

On to `Cc1cc(-c2cc3c(N4CCN(c5ncc([C@](C)(O)c6ccc(F)cc6)cn5)CC4)ncnn3c2)no1` (single isomer, unassigned) [Compound 51], for which the IC50 on D816V KIT was 0.01 to 0.1 µM.

`C[C@](N)(c1ccccc1)c1cnc(N2CCN(c3ncnn4cc(-c5cn[nH]c5)cc34)CC2)nc1` (single isomer, unassigned) [Compound 12]: the IC50 in assay [1] is < 0.05 µM.

For the molecule `Cn1cc(-c2cc3c(N4CCN(c5ccccc5)CC4)ncnn3c2)cn1` [Compound 1], the IC50 at D816V KIT was > 0.1 µM.
